Laboratory results from patent US20230167088A1, “1-PYRAZINYLPYRAZOLYL-3-OXYALKYL ACIDS AND THEIR DERIVATIVES, AND THEIR USE FOR CONTROL OF UNDESIRED PLANT GROWTH” (BAYER AKTIENGESELLSCHAFT, priority 2020, published 2023).

Legend:
[1] = test system: ALOMY; experiment: Herbicidal post-emergence action 1a (greenhouse pots, visual rating); type: in vivo, Alopecurus myosuroides; conditions: rated visually about 3 weeks after treatment, 100% = plants have died, 0% = like control plants
Summary of the method: (§1)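 Weeds and crops sown in sandy loam in greenhouse pots were sprayed post-emergence at the one-leaf stage (2–3 weeks after sowing) with WP or EC formulations plus 0.5% additive at 600 l/ha water, 320 and/or 80 g/ha. About 3 weeks later damage was rated visually against untreated controls (0% = no effect, 100% = dead).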

[2] = test system: AVEFA; experiment: as above; type: in vivo, Avena fatua; conditions: rated visually about 3 weeks after treatment, 100% = plants have died, 0% = like control plants
Summary of the method: as §1

[3] = test system: ECHCG; experiment: as above; type: in vivo, Echinochloa crus-galli; conditions: rated visually about 3 weeks after treatment, 100% = plants have died, 0% = like control plants
Summary of the method: as §1

[4] = test system: LOLRI; experiment: as above; type: in vivo, Lolium rigidum; conditions: rated visually about 3 weeks after treatment, 100% = plants have died, 0% = like control plants
Summary of the method: as §1

[5] = test system: SETVI; experiment: as above; type: in vivo, Setaria viridis; conditions: rated visually about 3 weeks after treatment, 100% = plants have died, 0% = like control plants
Summary of the method: as §1

[6] = test system: MATIN; experiment: as above; type: in vivo, Matricaria inodora; conditions: visual rating about 3 weeks after treatment
Summary of the method: as §1

[7] = test system: PHBPU; experiment: as above; type: in vivo, Pharbitis purpurea; conditions: visual rating about 3 weeks after treatment
Summary of the method: as §1

[8] = test system: POLCO; experiment: as above; type: in vivo, Polygonum convolvulus; conditions: visual rating about 3 weeks after treatment
Summary of the method: as §1

[9] = test system: VERPE; experiment: as above; type: in vivo, Veronica persica; conditions: visual rating about 3 weeks after treatment
Summary of the method: as §1

[10] = test system: ALOMY; experiment: Herbicidal pre-emergence action 2a (greenhouse pots, visual scoring); type: in vivo, Alopecurus myosuroides; conditions: dosage 320 g/ha, visual scoring after about 3 weeks
Summary of the method: (§2)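 Visual scoring after roughly 3 weeks, as percent effect relative to untreated pots (0% = like control, 100% = dead). Seeds were covered with soil, then the surface received aqueous WP/EC suspension or emulsion (0.5% additive, 600 l/ha) at 320 and/or 80 g/ha.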

[11] = test system: AVEFA; experiment: as above; type: in vivo, Avena fatua; conditions: dosage 320 g/ha, visual scoring after about 3 weeks
Summary of the method: as §2

[12] = test system: ECHCG; experiment: as above; type: in vivo, Echinochloa crus-galli; conditions: dosage 320 g/ha, visual scoring after about 3 weeks
Summary of the method: as §2

[13] = test system: LOLRI; experiment: as above; type: in vivo, Lolium rigidum; conditions: dosage 320 g/ha, visual scoring after about 3 weeks vs untreated controls
Summary of the method: as §2

[14] = test system: SETVI; experiment: as above; type: in vivo, Setaria viridis; conditions: dosage 320 g/ha, visual scoring after about 3 weeks vs untreated controls
Summary of the method: as §2

[15] = test system: ABUTH; experiment: as above; type: in vivo, Abutilon theophrasti; conditions: dosage 320 g/ha, visual scoring after about 3 weeks vs untreated controls
Excerpt: [table] a) Seeds of monocotyledonous and dicotyledonous weed plants and crop plants are placed in plastic or organic plant pots and covered with soil. The compounds of the invention, formulated in the form of wettable powders (WP) or as emulsion concentrates (EC), are then applied onto the surface of the covering soil as aqueous suspension or emulsion with addition of 0.5% additive at a water application rate of 600 1/ha (converted). After the treatment, the pots are placed in a greenhouse and kept under good growth conditions for the trial plants. After about 3 weeks, the effect of the preparations is scored visually in comparison with untreated controls as percentages. For example, 100% activity=the plants have died, 0% activity=like control plants. Tables B1 to B15 below show the effects of selected compounds of the general formula (I) according to Tables 1 and 2 on various harmful plants and an application rate corresponding to 320 g/ha and/or 80 g/ha, which were obtained by the experimental procedure mentioned above.

[16] = test system: AMARE; experiment: as above; type: in vivo, Amaranthus retroflexus; conditions: dosage 320 g/ha, visual scoring after about 3 weeks vs untreated controls
Summary of the method: as §2

[17] = test system: MATIN; experiment: as above; type: in vivo, Matricaria inodora; conditions: dosage 320 g/ha, visual scoring after about 3 weeks vs untreated controls
Summary of the method: as §2

[18] = test system: PHBPU; experiment: as above; type: in vivo, Pharbitis purpurea; conditions: dosage 320 g/ha, visual scoring after about 3 weeks vs untreated controls
Summary of the method: as §2

[19] = test system: POLCO; experiment: as above; type: in vivo, Polygonum convolvulus; conditions: dosage 320 g/ha, visual scoring after about 3 weeks vs untreated controls
Summary of the method: as §2

[20] = test system: VERPE; experiment: as above; type: in vivo, Veronica persica; conditions: dosage 320 g/ha, visual scoring after about 3 weeks vs untreated controls
Summary of the method: as §2

[21] = test system: AMARE; experiment: Herbicidal post-emergence action 1a (greenhouse pots, visual rating); type: in vivo, Amaranthus retroflexus; conditions: visual rating about 3 weeks after treatment
Summary of the method: as §1

SMILES | Post-emergence action against ALOMY in % ([1]; Dosage 320 g/ha) | Post-emergence action against AVEFA in % ([2]; Dosage 320 g/ha) | Post-emergence action against ECHCG in % ([3]; Dosage 80 g/ha) | Post-emergence action against ECHCG in % ([3]; Dosage 320 g/ha) | Post-emergence action against LOLRI in % ([4]; Dosage 80 g/ha) | Post-emergence action against LOLRI in % ([4]; Dosage 320 g/ha) | Post-emergence action against SETVI in % ([5]; Dosage 80 g/ha) | Post-emergence action against SETVI in % ([5]; Dosage 320 g/ha) | Post-emergence action against MATIN in % ([6]; dosage 80 g/ha) | Post-emergence action against MATIN in % ([6]; dosage 320 g/ha) | Post-emergence action against PHBPU in % ([7]; dosage 80 g/ha) | Post-emergence action against PHBPU in % ([7]; dosage 320 g/ha) | Post-emergence action against POLCO in % ([8]; dosage 80 g/ha) | Post-emergence action against POLCO in % ([8]; dosage 320 g/ha) | Post-emergence action against VERPE in % ([9]; dosage 80 g/ha) | Post-emergence action against VERPE in % ([9]; dosage 320 g/ha) | Pre-emergence action against ALOMY in % [10] | Pre-emergence action against AVEFA in % [11] | Pre-emergence action against ECHCG in % [12] | Pre-emergence action against LOLRI in % [13] | other results
C[C@@H](Oc1nn(-c2cnccn2)c(-c2cncc(F)c2)c1Br)C(=O)O [Example I-96] | 100% | 90% | 80% | 90% | 100% | 100% | 90% | 90% | 80% | 90% | 90% | 90% | 80% | 80% | 90% | 90% | 100% | 90% | 100% | 100% | Pre-emergence action against SETVI in % [14]: 100%; Pre-emergence action against ABUTH in % [15]: 90%; Pre-emergence action against AMARE in % [16]: 100%; Pre-emergence action against MATIN in % [17]: 100%; Pre-emergence action against PHBPU in % [18]: 90%; Pre-emergence action against POLCO in % [19]: 100%; Pre-emergence action against VERPE in % [20]: 100%
CCOC(=O)[C@@H](C)Oc1nn(-c2cnccn2)c(-c2cncc(F)c2)c1Br [Example I-99] | 100% | 100% | 90% | 90% | 100% | 100% | 90% | 90% | 80% | 90% | 80% | 90% | 80% | 80% | 90% | 90% | 100% | 90% | 100% | 100% | Post-emergence action against ALOMY in % ([1]; Dosage 80 g/ha): 80%; Post-emergence action against AVEFA in % ([2]; Dosage 80 g/ha): 80%; Post-emergence action against AMARE in % ([21]; dosage 80 g/ha): 90%; Post-emergence action against AMARE in % ([21]; dosage 320 g/ha): 90%; Pre-emergence action against SETVI in % [14]: 100%; Pre-emergence action against ABUTH in % [15]: 90%; Pre-emergence action against AMARE in % [16]: 100%; Pre-emergence action against MATIN in % [17]: 100%; Pre-emergence action against PHBPU in % [18]: 90%; Pre-emergence action against POLCO in % [19]: 90%; Pre-emergence action against VERPE in % [20]: 100%
